# Where “and” joins values, the source holds several entries; their conditions need not be identical. Identical values can stand only once.
# What was measured:
# [1] = system: recombinant human Ndc80 kinetochore complex binding to taxol-stabilized microtubules; test: Ndc80^488 complex-MT binding assay (fluorescence microscopy / TIRF); settings: for Effect on binding of the Ndc80^488 complex to taxol-stabilized MTs: compound 50 µmol/l, wide-field fluorescence microscopy; for IC50: total internal reflection fluorescence microscopy, Ndc80^488 complex 0.1 µmol/l, taxol-stabilized MTs
# Source text: To screen compound libraries for molecules inhibiting binding of the outer kinetochore Ndc80 complex (Ndc80, Nuf2, Spc24, Spc25) to MTs, we used a fluorescence microscopy-based in vitro approach (Fig. 1). First, the recombinant human Ndc80 construct, used to crystallize the complex, was produced in Escherichia coli using a bicistronic plasmid from which the Nuf2-Spc24 and Ndc80-Spc25 peptides were generated (Fig. 1A). Following their intracellular assembly, the complex was purified from E. coli cell extract based on the GST tag at the N-terminus of Nuf2. The complex was released in solution with PreScission Protease (its recognition sequence was introduced between the GST tag and the NUF2 coding sequence) and was separated from contaminants by gel filtration chromatography (Fig. 1A). The high degree of purity of the preparation was confirmed by SDS-PAGE analysis and coomassie staining, which identified only both peptides (Fig. 1B). Next, the Ndc80 complex was fluorescently labeled with the Alexa Fluor 488 C5-maleimide (next named the Ndc80^488 complex) and was separated from unreacted fluorophore by gel filtration chromatography. The final preparation was highly pure as evidenced by gel filtration analysis and detection at 519 nm (emission maximum of the Alexa Fluor 488 dye) and at 280 nm (intrinsic protein fluorescence) (Fig. 1B). Next, the Ndc80^488 complex (0.1 µmol/l) was incubated with 10,200 compounds (comprising the Chembridge DIVERset and a compound collection from the Univ. Rome) at a starting concentration of 50 µmol/l. Binding (or lack thereof) of the complex to rhodamine-labeled taxol-stabilized MTs (0.1 µmol/l) was scored by wide-field fluorescence microscopy (Fig. 1C; images in Fig. 2A). […] Total internal reflection fluorescence microscopy was used to establish the IC50 value of the compound, which was measured to be ∼20 µmol/l (Fig. 2C).
# Recombinant human Ndc80 complex (Ndc80^Bonsai complex) was produced in Escherichia coli using a bicistronic expression plasmid (Fig. 1A, [12]). Following transcription from the TAC promoter/operator by induction with 0.4 mmol/l IPTG (20°C, 15 h), GST-Nuf2-Spc24 and Ndc80-Spc25 polypeptides were generated, which dimerized intracellulary into the GST-Ndc80 complex. The complex was isolated from E. coli cell extract following incubation with glutathione beads. The complex was released from the beads with PreScission Protease (GE Healthcare Life Sciences) and contaminants were removed by gel filtration chromatography (Superdex 200, GE Healthcare Life Sciences). On average 4 mg of Ndc80 complex were obtained from 1 liter of cell culture. Next, 1 mg Ndc80 complex was labeled with 0.1 mg Alexa Fluor 488 C5-maleimide fluorophore (Invitrogen) at a 1.5-2 stoichiometry. The fluorescent complex (Ndc80^488 complex) was separated from unreacted fluorophore by gel filtration chromatography (Fig. 1B) and was then used to screen for compounds inhibiting Ndc80^488 complex-MT binding (Fig. 1C). The Ndc80^488 complex is fully functional as it is recruited to and acts at kinetochores when injected into prometaphase HeLa cells.
# MTs were polymerized (30 min, 37°C) from a 1∶10 mixture of rhodamine-labeled:unlabeled bovine brain αβ-tubulin (Cytoskeleton) in BRB-80 buffer (80 mmol/l PIPES pH 6.8, 1 mmol/l MgCl2, 1 mmol/l EGTA) and were then stabilized with 20 µmol/l taxol. The Ndc80^488 complex (0.1 µmol/l) was incubated with 100 µmol/l compound (30 min, 24°C) in 96-well polypropylene plates (Eppendorf). The 10,000 compound DIVERset library (Chembridge) and 200 compounds from the Department of Medicinal Chemistry and Technologies, University of Rome La Sapienza were used in the screen. Next, the MTs (100 nmol/l) were added to the compound-Ndc80^488 complex solution in a 1∶1 v/v ratio. After incubation (10 min, 24°C), the reaction mixtures were transferred to 96-well glass-bottom plates (Greiner Bio-one). […]
# taxol-stabilized MTs = test: Compound-based depolymerization of taxol-stabilized MTs in vitro; assay type: biochemical, bovine; settings: compound 50 µmol/l; for Taxol-stabilized MT population depolymerized: taxol (20 µmol/l)-stabilized MTs
# Protocol: To test this hypothesis, we treated HeLa cells with 0.5 µmol/l taxol, thereby arresting them in metaphase with stabilized spindles. […] To quantify the taxol-mediated inhibition of MT disassembly by compound B, we measured in vitro the depolymerization of taxol (20 µmol/l)-stabilized MTs following incubation with 50 µmol/l compound B (the screen condition). Nocodazole and maytansine (both at 50 µmol/l) were included as controls. At 50 µmol/l, compound B depolymerized 3% of the taxol-stabilized MT population, while nocodazole and maytansine depolymerized 11% and 31% of the taxol-treated MTs, respectively (Fig. 4B). […] This finding further supports our hypothesis that the interaction of compound B with the stabilized MTs must have prevented the Ndc80^488 complex from establishing contact with the MT surface.
# MTs were polymerized (30 min, 37°C) from a 1∶10 mixture of rhodamine-labeled:unlabeled bovine brain αβ-tubulin (Cytoskeleton) in BRB-80 buffer (80 mmol/l PIPES pH 6.8, 1 mmol/l MgCl2, 1 mmol/l EGTA) and were then stabilized with 20 µmol/l taxol. The Ndc80^488 complex (0.1 µmol/l) was incubated with 100 µmol/l compound (30 min, 24°C) in 96-well polypropylene plates (Eppendorf). The 10,000 compound DIVERset library (Chembridge) and 200 compounds from the Department of Medicinal Chemistry and Technologies, University of Rome La Sapienza were used in the screen. Next, the MTs (100 nmol/l) were added to the compound-Ndc80^488 complex solution in a 1∶1 v/v ratio. After incubation (10 min, 24°C), the reaction mixtures were transferred to 96-well glass-bottom plates (Greiner Bio-one). Each well was imaged at 519 nm and 590 nm with an IX81 Olympus inverted wide-field microscope (Olympus). Total internal reflection fluorescence imaging was performed with an Olympus IX71 inverted wide-field microscope (Olympus). ImageJ was used for image processing (NIH, USA).
# Taxol-stabilized MTs were prepared and diluted as described for the Ndc80^488 binding experiments. Varying compound concentrations in 10 µl of DMSO were added to 490 µl of diluted MTs at 37°C. Following incubation (30 min, 37°C), 450 µl of each mixture was centrifuged (10 min; 30,000 rpm; 37°C) in a Beckman Optima TLX centrifuge (TLA120.1 rotor). Pellets were dissolved in 25 µl of 8 mol/l urea, and the protein content of 20 µl was compared with that from pellets formed without compound.
IC50 [1],Fold more active than compound B in the Ndc80^488 complex-MT binding assay ([1]; versus compound B) [fold],Compound,Effect on binding of the Ndc80^488 complex to taxol-stabilized MTs [1],Taxol-stabilized MT population depolymerized (taxol-stabilized MTs) [%],Depolymerization of taxol-stabilized MTs (taxol-stabilized MTs)
–,–,"COC(=O)Nc1nc2ccc(C(=O)c3cccs3)cc2[nH]1 [nocodazole, reference compound]",did not prevent,11,–
~1 µM and 1 µM,~20,CCSCCOC(=O)c1[nH]c2c(c1C)C(=O)C[C@@H](c1ccco1)C2 [A8],–,–,mildly depolymerized
~20 µM and 20 µM,–,"Cc1c(C(=O)OCC2CCCO2)[nH]c2c1C(=O)CC(c1ccco1)C2 (centres unmarked) [compound B, 6-furan-2-yl-3-methyl-4-oxo-4,5,6,7,-tetrahydro-1H-indole-2-carboxylic acid tetrahydro-furan-2-ylmethyl ester]",active,3,–

# — paper PMC2904697, “A Screen for Kinetochore-Microtubule Interaction Inhibitors Identifies Novel Antitubulin Compounds” (PLoS ONE, 2010)
